Values quoted from earlier work as cited in patent publication US5486526A, “Histamine H3 -receptor antagonists and therapeutic uses thereof” (The University of Toledo, priority 1993, dated 1996).

What was measured:
[1] = test system: animal toxicity studies or in clinical usage; settings: cited from earlier work
peptic ulcer patients = settings: cited from earlier work
Inositol Triphosphate = settings: reference compound; cited from earlier work

CN/C(=N/CCSCc1nc[nH]c1C)NC#N [cimetidine]
granulocytopenia or other side effects (in words) [1]: did not cause granulocytopenia, or any other side effects

C/N=C(\S)NCCSCc1[nH]cnc1C [metiamide]
granulocytopenia (in words) (peptic ulcer patients): low incidence of granulocytopenia

O=P(O)(O)O[C@@H]1[C@H](O)[C@H](O)[C@@H](OP(=O)(O)O)[C@H](OP(=O)(O)O)[C@H]1O [IP3]
Ki (Inositol Triphosphate): 0.0125 µM
